Laboratory results from US10894051B2, “Method of treating metastatic cancer in a subject” (City University of Hong Kong, priority 2017, dated 2021).

What was measured:
sub-chronic toxicity = assay type: in vivo; details: 5 mg/kg daily intraperitoneal; 3 months; mice
Description: As for the sub-chronic toxicity of vacuolin-1, 5 mg/kg vacuolin-1 was administered daily to young adult male and female mice via intraperitoneal route for 3 months, and DMSO-containing PBS was administered to another set of male and female mice as a control group. The body weight of the mice was determined every week. […] After the 3 months, organs were excised for histopathology evaluation.

cancer cell = assay: colony formation from single cancer cell; assay type: cell-based; details: 2 μM, 5 μM and 10 μM
Description: (§1) HeLa cells, A549 cells, CNE-1 cells and human liver cancer stem cells (hLCSCs) were incubated and treated with vacuolin-1 at different concentrations, namely 2 μM, 5 μM and 10 μM.

LCSCs = assay: xenograft tumor-seeding of vacuolin-1 pretreated LCSCs; assay type: in vivo, nude mice; details: for tumor incidence / tumor volume: pretreated 10 μM 48 hours, after 4 weeks
Description: Nude mice were divided into 4 control groups and 4 treatment groups, each group having 6 nude mice. With reference to FIG. 2A, LCSCs were pretreated with DMSO or 10 μM vacuolin-1 for 48 hours before injecting to nude mice via subcutaneous injection. After 4 weeks, the tumor incidence in mice was measured to determine whether the pretreatment of vacuolin-1 can inhibit the invasion cancer cells in mice.

[1] = tested on: mouse breast carcinoma 4TO7; assay: metastasis of tail vein injected 4TO7 cells; assay type: in vivo, normal BALBc mice; details: 2.5 mg/kg daily IP; BALBc mice
Description: To exclude the effects of immunodeficiency (nude mice) on the drug effects, another metastasis tumor model was established by tail vein injection of mouse breast carcinoma 4TO7 into normal BALBc mice followed by daily IP injections of vacuolin-1 (2.5 mg/kg) 24 hour later, as illustrated in FIG. 5A.

hLCSCs [2] = assay: tumor sphere formation; assay type: cell-based, human
tfLC3B-expressing LCSCs = assay: metastasis of tail vein injected LCSCs; assay type: in vivo; details: 2.5 mg/kg IP 3 times per week; 8 weeks; nude mice
Description: With reference to FIG. 3A, briefly, 5×10^5 tfLC3B-expressing LCSCs were injected via tail vein into nude mice. 24 hours after the tail vein injection, intraperitoneal (IP) injection of vacuolin-1 (2.5 mg/kg) were conducted 3 times per week. After 8 weeks, all mice were sacrificed. Lungs were excised, and fixed in the 4% paraformaldehyde in PBS. Metastatic nodules were counted in the excised lungs and hemotoxylin/eosin (H&E) were then performed.

[3] = tested on: Focal adhesion kinase (FAK); assay: phospho-Y397 FAK immunoblot; assay type: cell-based; details: phosphor-Y397 FAK immunoblot
Description: (§2) Autophagy or endosomal trafficking contributes to the migration and invasion of tumor cells by changing the microtubule dynamics, or presentation of surface proteins, or secretion of extracellular matrix (ECM) proteins. Also, focal adhesion (FA) dynamics is a key process for cell migration. In this regard, the effects of vacuolin-1 on the spatio-temporal regulation of FA dynamics were assessed. Phospho-Y397 FAK immunoblot was used to assess the effects of vacuolin-1 on phosphorylation and dephosphorylation dynamics of FAK. Cells were also treated with nocodazole, followed by nocodazole removal and vacuolin-1 incubation, stained with antibodies against Vinculin and Phalloidiin for FA and stress fiber, respectively.
Consistently, with reference to FIG. 1D, vacuolin-1 treatment of cells abolished phosphorylation and dephosphorylation dynamics of FAK as assessed by the phosphor-Y397 FAK immunoblot analysis.

focal adhesion (FA) = assay: FA disassembly after nocodazole release (Vinculin staining); assay type: cell-based
Description: as §2
With reference to FIGS. 1E and 1F, cells were treated with nocodazole so as to depolymerize microtubules for inducing and stabilizing FA formation, showing by the puncta staining pattern of Vinculin (green colour), whereas removal of nocodazole led to microtubule regrowth resulting in decreasing the number of FA in a time-dependent manner until the reformation of FAs. […] Focal adhesion kinase (FAK) phosphorylation and dephosphorylation on Y397 is another readout of FA dynamics.

hLCSCs [4] = assay: matrigel invasion assay; assay type: cell-based, human
Description: as §1

[5] = tested on: Fluc-mCherry-expressing 4TO7 cells; assay: metastasis of tail vein injected Fluc-mCherry 4TO7 cells; assay type: in vivo; details: tail vein injection; 2.5 mg/kg IP; 2 weeks; normal mice
Description: Since 4TO7 cells are more metastatic than LCSCs, Fluc-mCherry-expressing 4TO7 cells were injected into normal mice via tail vein injection followed by IP injections of vacuolin-1 (2.5 mg/kg) 24 hour later, as illustrated in FIG. 6A. The mice were imaged by the Cri Maestro 2 weekly to assess the tumor progression. Mice were sacrificed after 2 weeks, and the number of tumor colonies in lung was counted.

[6] = tested on: human breast cancer cells CA1a; assay: metastasis of tail vein injected CA1a cells; assay type: in vivo; details: 2.5 mg/kg IP 3 times per week; 8 weeks; nude mice
Description: Similarly, the anti-metastasis effects of vacuolin-1 in human breast cancer cells CA1a in xenograft mouse models were evaluated. With reference to FIG. 4A, briefly, 5×10^5 Fluc-mCherry-expressing CA1a cells were injected by tail vein into nude mice. 24 hours after the tail vein injection, IP injections of vacuolin-1 (2.5 mg/kg) and DMSO-containing PBS were conducted 3 times per week. The mice where imaged by the Cri Maestro 2 weekly to assess the tumor progression. After 8 weeks, all mice were sacrificed.

cancer cells = assay: cytotoxicity in vitro; assay type: cell-based
[7] = tested on: Fluc-mCherry-expressing 4TO7 cells; assay: metastasis of fat pad injected Fluc-mCherry 4TO7 cells; assay type: in vivo; details: fat pad injection; 2.5 mg/kg IP; 4 weeks; normal female mice
Description: The anti-metastasis effects of vacuolin-1 in another metastasis model have also been evaluated. With reference to FIG. 7A, Fluc-mCherry-expressing 4TO7 cells were injected into the fat pad of normal female mice followed by IP injections of vacuolin-1 (2.5 mg/kg) 24 hour later. The mice were imaged by the Cri Maestro 2 weekly to assess the tumor progression. Mice were sacrificed after 4 weeks, and the number of tumor colonies in lung was counted.

[8] = acute toxicity via oral route; assay type: in vivo; details: single dose 250 mg/kg oral
Description: In particular, vacuolin-1 was administered at a single dose of 250 mg/kg to young adult male and female mice via oral route, and DMSO-containing PBS was administered to another set of male and female mice via oral route as a control group. […] During the 2 weeks, the body weight was also measured. After the 2 weeks, organs were excised for histopathology evaluation.
Referring to FIG. 8B, all tissues or organs in vacuolin-1 treated mice were normal in histological point of view as compared to control groups.

CNE-1 cells = assay: trans-well migration assay; assay type: cell-based; details: 2 μM, 5 μM and 10 μM
Description: as §1

A549 cells = assay: trans-well migration assay; assay type: cell-based; details: 2 μM, 5 μM and 10 μM
Description: as §1

[9] = tested on: human liver cancer stem cells (hLCSCs); assay: trans-well migration assay; assay type: cell-based; details: 2 μM, 5 μM and 10 μM
Description: as §1

HeLa cells = assay: trans-well migration assay; assay type: cell-based; details: 2 μM, 5 μM and 10 μM
Description: as §1

[10] = 1*10^4 LCSCs injected subcutaneously
[11] = 1*10^5 LCSCs injected subcutaneously
[12] = 1*10^6 LCSCs injected subcutaneously

SMILES: Ic1cccc(/C=N/Nc2nc(N3CCOCC3)nc(N(c3ccccc3)c3ccccc3)n2)c1 [vacuolin-1]
- sub-chronic toxicity (sub-chronic toxicity): no sub-chronic toxicity
- size and number of colonies generated from single cancer cell (cancer cell): dramatically reduced
- tumor incidence (LCSCs; 1*10^3 LCSCs injected subcutaneously): 0/6
- tumor incidence (LCSCs; [10]): 2/6
- tumor volume (LCSCs; [10]): (1069 mm^3)
- tumor incidence (LCSCs; [11]): 2/6
- tumor volume (LCSCs; [11]): (1184 mm^3)
- tumor incidence (LCSCs; [12]): 5/6
- tumor volume (LCSCs; [12]): (1521 mm^3)
- tumor-seeding ability of LCSC cells (LCSCs; vacuolin-1 pretreatment, nude mice): markedly inhibited
- anti-metastatic effects on 4TO7 cells (tumor nodules in lungs, lung histology) [1]: striking anti-metastatic effects
- tumor sphere formation (hLCSCs [2]): significantly inhibited
- metastasis of LCSCs (tumor nodules in lung, lung histology) (tfLC3B-expressing LCSCs): significantly inhibited
- phosphorylation and dephosphorylation dynamics of FAK [3]: abolished
- FA disassembly (focal adhesion (FA)): markedly inhibited
- cell invasion (hLCSCs [4]): significantly inhibited
- metastasis of 4TO7 cells [5]: markedly inhibited
- metastasis of CA1a cells [6]: significantly inhibited
- cytotoxicity (cancer cells): no cytotoxicity
- metastasis of 4TO7 cells [7]: markedly inhibited
- behavior abnormality ([8]; 2 weeks): no signs of behavior abnormality
- mouse weight gain ([8]; 2 weeks): no effects
- histology of tissues or organs ([8]; after 2 weeks): normal
- acute toxicity ([8]; mice): no acute toxicity
- cell migration (CNE-1 cells): significantly inhibited
- cell migration (A549 cells): significantly inhibited
- cell migration [9]: significantly inhibited
- cell migration (HeLa cells): significantly inhibited
